Test results as given in US12459951B2, “Compounds that interact with RAS superfamily proteins for treatment of cancers, inflammatory diseases, rasopathies, and fibrotic disease” (SHY Therapeutics, LLC, priority 2022, dated 2025).

Assays:
[1] = system: Smad2/Smad3 phosphorylation; assay: Phospho-Smad2/3 Inhibition Assay (western blot), Panc-1; assay type: cell-based, human; details: at 10 μM, Panc-1 pancreatic cancer cell line; starred symbols = activation
In short: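 Panc-1 cells (KRas G12D), starved overnight in 0.5% FBS, treated 3 h at 37° C with compound at 10 μM final (0.3% DMSO) or serial dilutions for IC50, then stimulated with 10 ng/ml TGF-b1 for 1 h. Phospho-Smad2 (Ser465/467) and phospho-Smad3 (Ser423/425) detected by western blot.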

Erk1/2 phosphorylation = assay: Erk1/2 Phosphorylation Assay (western blot), Panc-1; assay type: cell-based, human; details: at 10 μM, * = activation
In short: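 KRas G12D Panc-1 cells were treated 6 h at 37° C with compound at 10 μM or serial dilutions for IC50 (0.3% DMSO). In method 1, cells were serum-starved overnight (0.5% FBS) and then given 1.5 ng/ml EGF for 15 min. In method 2, cells stayed in 10% FBS without stimulation. Lysate phospho-Erk1/2 (Thr202/Tyr204) was read by western blot.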

IL6 = assay: IL-6 Quantification Assay (ELISA), LPS-stimulated RAW 264.7; assay type: cell-based; set-up: inhibition: dose or concentration left out as unconfirmed; details: Mus musculus, RAW264.7, read-out: IL-6: % inh.
TNF-alpha = TNF-alpha Quantification Assay (ELISA), LPS-stimulated RAW 264.7; assay type: cell-based; details: Mus musculus, RAW264.7; at 10 μM; read-out: TNFα: % inh.

| Structure (SMILES) | % inh of Smad2/3 phosphorylation in Panc-1 [1] | % inh of Erk1/2 phosphorylation in Panc-1 (Erk1/2 phosphorylation) | inhibition (IL6) [%] | inhibition at 10 µM (TNF-alpha) [%] | inhibition at 10 µM (IL6; at 10 μM) [%] |
| --- | --- | --- | --- | --- | --- |
| CO[C@H]1CC[C@@H](Nc2nc(-c3ccccn3)nn3cc(-c4ccn(C(C)C)n4)c(-c4ccccc4)c23)C1 (racemic) [Compound 24, rac 6-(1-Isopropyl-1H-pyrazol-3-yl)-N-((1R,3S)-3-methoxycyclopentyl)-5-phenyl-2-(pyridin-2-yl)pyrrolo[2,1-f][1,2,4]triazin-4-amine] | B (B = 26-45% inhibition) | 0 (0% inhibition) | 25 to 49 | 25 to 49 | – |
| COCC1CCN(c2nc(-c3ccccn3)nn3cc(-c4ccn(C(C)C)n4)c(-c4ccccc4)c23)C1 (racemic) [Compound 25, rac 6-(1-Isopropyl-1H-pyrazol-3-yl)-4-(3-(methoxymethyl)pyrrolidin-1-yl)-5-phenyl-2-(pyridin-2-yl)pyrrolo[2,1-f][1,2,4]triazine] | 0 (0 = 0% inhibition) | 0 (0% inhibition) | 1 to 24 | 1 to 24 | – |
| COC[C@@H]1CC[C@@H]1CNc1nc(-c2ccccn2)nn2cc(-c3ccn(C(C)C)n3)c(-c3ccccc3)c12 (racemic) [Compound 26, rac 6-(1-Isopropyl-1H-pyrazol-3-yl)-N-(((1S,2R)-2-(methoxymethyl)cyclobutyl)methyl)-5-phenyl-2-(pyridin-2-yl)pyrrolo[2,1-f][1,2,4]triazin-4-amine] | C (C = 46-75% inhibition) | D (85-100% inhibition) | 50 to 74 | 1 to 24 | – |
| COC1CCCN(c2nc(-c3ccccn3)nn3cc(-c4ccn(C(C)C)n4)c(-c4ccccc4)c23)C1 (racemic) [Compound 27, rac 6-(1-Isopropyl-1H-pyrazol-3-yl)-4-(3-methoxypiperidin-1-yl)-5-phenyl-2-(pyridin-2-yl)pyrrolo[2,1-f][1,2,4]triazine] | D (D = 76-100% inhibition) | 0 (0% inhibition) | 75 to 100 | 25 to 49 | – |
| COc1cccc(-c2cn3nc(-c4nccn4C)nc(N[C@@H]4CC[C@H](OC)C4)c3c2-c2ccccc2)c1Cl (racemic) [Compound 33, rac 6-(2-Chloro-3-methoxyphenyl)-N-((1R,3S)-3-methoxycyclopentyl)-2-(1-methyl-1H-imidazol-2-yl)-5-phenylpyrrolo[2,1-f][1,2,4]triazin-4-amine] | D (D = 76-100% inhibition) | D (85-100% inhibition) | – | 75 to 100 | 75 to 100 |
| CO[C@H]1CC[C@@H](Nc2nc(-c3nccn3C)nn3cc(-c4ccn(C(C)C)n4)c(C(C)C)c23)C1 (racemic) [Compound 36, rac 5-Isopropyl-6-(1-isopropyl-1H-pyrazol-3-yl)-N-((1R,3S)-3-methoxycyclopentyl)-2-(1-methyl-1H-imidazol-2-yl)pyrrolo[2,1-f][1,2,4]triazin-4-amine] | D (D = 76-100% inhibition) | C (50-84% inhibition) | 50 to 74 | 1 to 24 | – |
| COc1cccc(-c2cn3nc(-c4nccn4C)nc(N[C@@H]4CC[C@@H](OC)C4)c3c2-c2ccccc2)c1F (racemic) [Compound 43, rac 6-(2-Fluoro-3-methoxyphenyl)-N-((1R,3R)-3-methoxycyclopentyl)-2-(1-methyl-1H-imidazol-2-yl)-5-phenylpyrrolo[2,1-f][1,2,4]triazin-4-amine] | D (D = 76-100% inhibition) | D (85-100% inhibition) | 25 to 49 | 1 to 24 | – |
| COc1cccc(-c2cn3nc(-c4nccn4C)nc(N[C@@H]4CC[C@@H](OC)C4)c3c2-c2ccccn2)c1F (racemic) [Compound 46, rac 6-(2-Fluoro-3-methoxyphenyl)-N-((1R,3R)-3-methoxycyclopentyl)-2-(1-methyl-1H-imidazol-2-yl)-5-(pyridin-2-yl)pyrrolo[2,1-f][1,2,4]triazin-4-amine] | 0 (0 = 0% inhibition) | 0 (0% inhibition) | 75 to 100 | 75 to 100 | – |
| COc1cccc(-c2cn3nc(-c4nccn4C)nc(N[C@@H]4CC[C@H]4OC)c3c2-c2ccccc2)c1C (racemic) [Compound 272, rac 6-(3-Methoxy-2-methylphenyl)-N-((1R,2R)-2-methoxycyclobutyl)-2-(1-methyl-1H-imidazol-2-yl)-5-phenylpyrrolo[2,1-f][1,2,4]triazin-4-amine] | D (D = 76-100% inhibition) | D (85-100% inhibition) | 75 to 100 | 75 to 100 | – |
| COc1cccc(Nc2nc(-c3nccn3C)nn3cc(-c4ccn(C(C)C)n4)c(-c4ccccc4)c23)n1 [Compound 23, 6-(1-Isopropyl-1H-pyrazol-3-yl)-N-(6-methoxypyridin-2-yl)-2-(1-methyl-1H-imidazol-2-yl)-5-phenylpyrrolo[2,1-f][1,2,4]triazin-4-amine] | 0 (0 = 0% inhibition) | D (85-100% inhibition) | 75 to 100 | 75 to 100 | – |
| COc1cccc(-c2cn3nc(-c4nccn4C)nc(O)c3c2-c2ccccc2)c1Cl [Compound 28, 6-(2-Chloro-3-methoxyphenyl)-2-(1-methyl-1H-imidazol-2-yl)-5-phenylpyrrolo[2,1-f][1,2,4]triazin-4-ol] | 0 (0 = 0% inhibition) | 0 (0% inhibition) | 25 to 49 | 1 to 24 | – |
| COCCNc1nc(-c2nccn2C)nn2cc(-c3cccc(OC)c3Cl)c(-c3ccccc3)c12 [Compound 29, 6-(2-Chloro-3-methoxyphenyl)-N-(2-methoxyethyl)-2-(1-methyl-1H-imidazol-2-yl)-5-phenylpyrrolo[2,1-f][1,2,4]triazin-4-amine] | D (D = 76-100% inhibition) | D (85-100% inhibition) | 75 to 100 | 75 to 100 | – |
| COCCCNc1nc(-c2nccn2C)nn2cc(-c3cccc(OC)c3Cl)c(-c3ccccc3)c12 [Compound 30, 6-(2-Chloro-3-methoxyphenyl)-N-(3-methoxypropyl)-2-(1-methyl-1H-imidazol-2-yl)-5-phenylpyrrolo[2,1-f][1,2,4]triazin-4-amine] | D (D = 76-100% inhibition) | D (85-100% inhibition) | 75 to 100 | 75 to 100 | – |
| Cc1c(-c2ccn(C)n2)cn2nc(-c3nccn3C)nc(N3CCc4cc(C(F)(F)F)cnc43)c12 [Compound 251, 5-Methyl-2-(1-methyl-1H-imidazol-2-yl)-6-(1-methyl-1H-pyrazol-3-yl)-4-(5-(trifluoromethyl)-2,3-dihydro-1H-pyrrolo[2,3-b]pyridin-1-yl)pyrrolo[2,1-f][1,2,4]triazine] | A* (A* = 1-25% activation) | B (26-49% inhibition) | – | – | – |
